Here are results for twelve molecules from ChEMBL document CHEMBL1201862, “PubChem BioAssay data set” (2004).

Data set [1] has as its target Beta-2 adrenergic receptor (Homo sapiens, UniProt P07550). In words: beta2AR agonists driving receptor internalization, dose response, cell-based, FAP fluorogen, flow cytometry, cherry pick 1 (AID 588763). The format is functional.
Another data set concerns the target Cytochrome P450 2C19 (Homo sapiens, UniProt P33261). Description: Cytochrome panel assay with activity outcomes. Panel member name: p450-cyp2c19 Compounds with AC50 equal or less than 10 uM are considered active. It counts as functional.
In another data set the target is Cytochrome P450 2D6 (Homo sapiens, UniProt P10635).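 Note: CYP2D6 member of a cytochrome P450 panel assay.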
Sequence of Cytochrome P450 2D6 (P10635 whole entry): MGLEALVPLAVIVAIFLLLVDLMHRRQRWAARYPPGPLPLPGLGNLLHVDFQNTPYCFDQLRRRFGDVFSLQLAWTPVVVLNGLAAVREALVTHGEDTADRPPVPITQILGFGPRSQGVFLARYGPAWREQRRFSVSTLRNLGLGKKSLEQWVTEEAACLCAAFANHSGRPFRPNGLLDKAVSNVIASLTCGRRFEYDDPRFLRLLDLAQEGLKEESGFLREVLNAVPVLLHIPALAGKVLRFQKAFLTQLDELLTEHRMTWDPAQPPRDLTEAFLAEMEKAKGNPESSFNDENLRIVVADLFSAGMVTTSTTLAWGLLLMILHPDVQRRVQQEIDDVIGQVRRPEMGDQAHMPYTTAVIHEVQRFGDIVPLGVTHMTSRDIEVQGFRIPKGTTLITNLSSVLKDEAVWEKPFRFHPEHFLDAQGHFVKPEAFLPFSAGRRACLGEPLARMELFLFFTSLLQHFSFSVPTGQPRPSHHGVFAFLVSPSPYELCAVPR
The target in data set [2] is Dual specificity protein kinase CLK1 (Homo sapiens, UniProt P49759). Description: CLK1 kinase inhibitors, off-target check, dose response, selectivity assay for Dyrk1A inhibitor project, biochemical, cherry-picked samples (AID 588811).
Sequence of Dual specificity protein kinase CLK1 (P49759 whole entry): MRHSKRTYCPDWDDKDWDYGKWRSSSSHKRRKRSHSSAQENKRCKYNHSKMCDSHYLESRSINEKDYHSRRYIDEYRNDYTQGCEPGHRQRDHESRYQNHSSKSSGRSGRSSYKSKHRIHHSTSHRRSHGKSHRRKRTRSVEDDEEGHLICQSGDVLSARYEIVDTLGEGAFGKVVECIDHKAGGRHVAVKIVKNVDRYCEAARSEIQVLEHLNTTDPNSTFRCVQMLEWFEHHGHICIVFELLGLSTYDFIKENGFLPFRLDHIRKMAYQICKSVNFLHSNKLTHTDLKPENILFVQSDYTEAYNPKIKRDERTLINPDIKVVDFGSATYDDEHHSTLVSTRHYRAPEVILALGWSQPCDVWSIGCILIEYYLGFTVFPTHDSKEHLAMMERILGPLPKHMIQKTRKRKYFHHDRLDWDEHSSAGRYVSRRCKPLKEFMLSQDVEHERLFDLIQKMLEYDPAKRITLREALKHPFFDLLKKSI
Data set [3] is described as follows: A cytotoxicity screen of small molecule inhibitors of the PhoP region in Salmonella typhi identified in the primary screen. [Related pubchem assays: 1850, 1864, 1985 ]. The format is functional.
Data set [4] concerns the target Glucose-6-phosphate 1-dehydrogenase (Homo sapiens, UniProt P11413). In words: human G6PD enzyme inhibitors, dose response, selectivity assay for P. falciparum G6PD inhibitor project, biochemical, fluorescence (AID 504792). The format is functional.
For data set [5], the target named is DNA dC->dU-editing enzyme APOBEC-3G (Homo sapiens, UniProt Q9HC16). Description: Dose Response confirmation of small molecule APOBEC3G DNA Deaminase Inhibitors via a fluorescence-based single-stranded DNA deaminase assay. [Related pubchem assays (depositor defined):AID493012, AID493028]. The format is functional.
The next data set deals with T1, Cytochrome P450 1A2 (Homo sapiens, UniProt P05177).
T1 sequence (P05177 whole entry): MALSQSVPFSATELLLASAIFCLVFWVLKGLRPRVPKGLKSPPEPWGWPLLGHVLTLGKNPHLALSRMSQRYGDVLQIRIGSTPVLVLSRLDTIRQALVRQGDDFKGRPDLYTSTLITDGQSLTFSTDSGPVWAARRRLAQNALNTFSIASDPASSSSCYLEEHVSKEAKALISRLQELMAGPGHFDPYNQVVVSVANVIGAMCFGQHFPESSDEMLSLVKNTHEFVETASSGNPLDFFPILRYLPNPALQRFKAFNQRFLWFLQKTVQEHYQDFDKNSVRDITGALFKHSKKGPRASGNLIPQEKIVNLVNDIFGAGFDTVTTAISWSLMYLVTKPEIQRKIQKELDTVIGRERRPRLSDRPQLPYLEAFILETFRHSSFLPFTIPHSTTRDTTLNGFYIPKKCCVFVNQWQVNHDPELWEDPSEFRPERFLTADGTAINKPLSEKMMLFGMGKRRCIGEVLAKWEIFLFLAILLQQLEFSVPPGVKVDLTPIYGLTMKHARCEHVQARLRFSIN

Data set [6] concerns the target T2, Heat shock factor protein 1 (Mus musculus, UniProt P38532).
T2 sequence (P38532 whole entry): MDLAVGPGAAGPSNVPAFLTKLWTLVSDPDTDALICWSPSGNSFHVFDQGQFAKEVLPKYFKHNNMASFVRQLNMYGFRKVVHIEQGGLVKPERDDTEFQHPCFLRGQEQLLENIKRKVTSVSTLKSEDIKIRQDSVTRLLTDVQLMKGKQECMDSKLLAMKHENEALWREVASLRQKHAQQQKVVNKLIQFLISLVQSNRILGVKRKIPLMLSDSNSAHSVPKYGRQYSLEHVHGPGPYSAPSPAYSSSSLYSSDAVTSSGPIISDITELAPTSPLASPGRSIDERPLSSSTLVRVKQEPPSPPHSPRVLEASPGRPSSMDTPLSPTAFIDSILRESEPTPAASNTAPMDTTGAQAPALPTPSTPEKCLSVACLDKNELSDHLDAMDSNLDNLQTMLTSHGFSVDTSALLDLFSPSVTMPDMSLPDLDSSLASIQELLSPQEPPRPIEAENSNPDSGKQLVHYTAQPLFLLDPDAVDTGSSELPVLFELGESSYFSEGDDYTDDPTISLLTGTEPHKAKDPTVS
In words: HSF1 potentiators in luciferase reporter cells, confirmation, cell-based, NIH3T3, luminescence, dose retest (AID 435004).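 Note: stress induced by proteasome inhibitor MG132 added 30 min after compound; luciferase reporter driven by HSF1 response element in NIH3T3 cells; actives raise luminescence as potentiators of the MG132 stress response.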 It counts as functional.

In a further data set the target is Cytochrome P450 3A4 (Homo sapiens, UniProt P08684).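 Note: CYP3A4 tested as one member of a cytochrome P450 panel screen.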
The next data set has as its target T3, Protein RecA (Mycobacterium tuberculosis, UniProt P9WHJ3).
T3 sequence (P9WHJ3 whole entry): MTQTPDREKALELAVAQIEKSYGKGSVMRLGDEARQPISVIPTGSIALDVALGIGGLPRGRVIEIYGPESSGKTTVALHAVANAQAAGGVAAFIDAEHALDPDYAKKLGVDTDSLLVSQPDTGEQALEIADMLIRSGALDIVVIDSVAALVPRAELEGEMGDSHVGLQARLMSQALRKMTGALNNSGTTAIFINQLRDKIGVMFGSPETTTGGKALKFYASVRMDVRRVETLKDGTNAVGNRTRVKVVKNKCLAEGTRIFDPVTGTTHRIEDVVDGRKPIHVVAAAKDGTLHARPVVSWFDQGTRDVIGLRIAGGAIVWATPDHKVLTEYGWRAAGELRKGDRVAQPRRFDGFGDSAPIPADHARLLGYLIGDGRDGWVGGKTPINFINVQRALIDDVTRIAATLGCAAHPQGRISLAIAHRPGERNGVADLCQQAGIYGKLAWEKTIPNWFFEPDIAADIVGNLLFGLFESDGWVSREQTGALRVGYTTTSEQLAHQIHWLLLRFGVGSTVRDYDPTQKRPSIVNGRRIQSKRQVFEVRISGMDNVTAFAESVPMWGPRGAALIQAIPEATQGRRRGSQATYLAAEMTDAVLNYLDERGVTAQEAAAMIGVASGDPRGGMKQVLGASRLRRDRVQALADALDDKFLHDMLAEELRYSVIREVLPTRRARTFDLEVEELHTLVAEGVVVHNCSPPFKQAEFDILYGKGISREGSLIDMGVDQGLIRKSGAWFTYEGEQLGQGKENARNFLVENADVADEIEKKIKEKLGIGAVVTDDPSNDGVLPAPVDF
Description: Fluorescence Cell-Free Homogeneous Dose Retest to Identify Inhibitors of RecA-Intein Splicing Activity. [Related pubchem assays (depositor defined):AID2097, AID2223, AID489010, AID492950]. The format is functional.

In data set [7] the target is Induced myeloid leukemia cell differentiation protein Mcl-1 (Homo sapiens, UniProt Q07820). It counts as functional.
Sequence of Induced myeloid leukemia cell differentiation protein Mcl-1 (Q07820 whole entry): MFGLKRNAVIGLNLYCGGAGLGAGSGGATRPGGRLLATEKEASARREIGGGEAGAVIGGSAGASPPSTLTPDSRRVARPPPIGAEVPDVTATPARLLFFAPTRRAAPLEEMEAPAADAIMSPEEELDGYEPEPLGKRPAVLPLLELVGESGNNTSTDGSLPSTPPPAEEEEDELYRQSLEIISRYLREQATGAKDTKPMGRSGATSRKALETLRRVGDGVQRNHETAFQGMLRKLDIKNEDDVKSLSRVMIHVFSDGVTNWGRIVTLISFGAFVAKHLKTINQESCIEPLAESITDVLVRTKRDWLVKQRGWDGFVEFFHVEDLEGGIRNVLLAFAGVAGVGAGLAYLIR
For data set [8], the target named is T4, Replicative DNA helicase DnaB (Mycobacterium tuberculosis, UniProt P9WMR3).
T4 sequence (P9WMR3 whole entry): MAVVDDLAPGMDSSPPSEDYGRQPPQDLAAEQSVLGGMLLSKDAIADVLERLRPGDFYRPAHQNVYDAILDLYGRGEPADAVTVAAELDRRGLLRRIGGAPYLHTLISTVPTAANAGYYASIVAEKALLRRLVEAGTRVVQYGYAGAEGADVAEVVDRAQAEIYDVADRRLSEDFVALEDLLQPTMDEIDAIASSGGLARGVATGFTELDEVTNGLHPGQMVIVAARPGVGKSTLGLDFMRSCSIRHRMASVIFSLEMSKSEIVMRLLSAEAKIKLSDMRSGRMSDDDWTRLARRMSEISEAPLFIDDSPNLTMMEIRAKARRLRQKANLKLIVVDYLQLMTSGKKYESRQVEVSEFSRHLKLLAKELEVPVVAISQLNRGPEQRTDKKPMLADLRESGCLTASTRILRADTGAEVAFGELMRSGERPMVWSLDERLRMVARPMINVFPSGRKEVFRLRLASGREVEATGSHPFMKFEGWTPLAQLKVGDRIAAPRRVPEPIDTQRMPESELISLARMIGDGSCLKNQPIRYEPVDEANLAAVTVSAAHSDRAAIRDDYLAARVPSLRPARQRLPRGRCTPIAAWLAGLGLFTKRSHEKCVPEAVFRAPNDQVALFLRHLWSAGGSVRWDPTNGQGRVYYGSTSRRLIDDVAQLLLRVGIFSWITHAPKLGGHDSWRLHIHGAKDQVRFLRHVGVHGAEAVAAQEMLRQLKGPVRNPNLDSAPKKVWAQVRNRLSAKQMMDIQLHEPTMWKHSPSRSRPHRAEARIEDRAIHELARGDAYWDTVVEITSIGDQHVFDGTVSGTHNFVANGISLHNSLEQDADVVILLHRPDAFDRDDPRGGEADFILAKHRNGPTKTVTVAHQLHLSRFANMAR
Description: DnaB intein splicing inhibitors, dose response, biochemical, cell-free fluorescence (AID 449749). It counts as functional.

Data set [9] addresses T5, SUMO-activating enzyme (Homo sapiens, UniProt Q9UBT2). In words: SUMOylation inhibitor hit validation, confirmation, SUMOylation inhibitor project, biochemical, AlphaScreen (AID 2018). The format is functional. Background: Bead proximity is the source of the signal in Alpha formats.
Data set [10] concerns the target T5, SUMO-activating enzyme. In words: inhibitors of in vitro SUMOylation cascade, primary screen, biochemical, HTRF, uHTS (AID 2006). The format is protein-complex assay.
Data set [11] is described as follows: THP-1 cell cytotoxicity, dose response, cytotoxicity control for Vif-APOBEC3G degradation inhibitor project, THP-1 cells (AID 1117359). It counts as functional. To be noted: Human immunodeficiency virus 1, THP-1.
Data set [12] addresses Voltage-gated inwardly rectifying potassium channel KCNH2 (Homo sapiens, UniProt Q12809). Particulars: Potency.
A further data set concerns INS1. Description: beta cell apoptosis inhibitors, cytokine rescue, dose response, luminescence, retest (AID 449756).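 Note: cell death triggered by IL-1 beta plus TNF-alpha plus IFN-gamma mixture; protective hits raise ATP signal compared with cytokine alone wells.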 Particulars: Rattus norvegicus. The format is functional, cell-based.
Data set [13] in a line: Luminescence Cell-Based Dose Retest to Confirm Inhibitors of Cancer Stem Cells. [Related pubchem assays (depositor defined):AID2717, AID2721]. It counts as functional. To be noted: Homo sapiens.
In the next data set the test system is Vero. Description: cells. Particulars: Chlorocebus sabaeus. The format is functional.
Data set [14] is described as follows: cytotoxicity in HEK-293T cells, dose response, cytotoxicity control for TCR NF-kB inhibitor project, luminescence, T-cell screen hits (AID 489026).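 Note: cells exposed to compound about 14 hours before the viability readout.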 It counts as functional, cell-based.
Data set [15] deals with Dual specificity tyrosine-phosphorylation-regulated kinase 1A (Rattus norvegicus, UniProt Q63470). It counts as biochemical, Homo sapiens.
For data set [16], the target named is Photoreceptor-specific nuclear receptor (Homo sapiens, UniProt Q9Y5X4). The format is functional, cell-based.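 Note: CHO-S cells with Gal4-NCOR and VP16-NR2E3 two-hybrid luciferase reporter.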

Calls of active or inactive are those of the source.

T5 sequence (Q9UBE0 whole entry): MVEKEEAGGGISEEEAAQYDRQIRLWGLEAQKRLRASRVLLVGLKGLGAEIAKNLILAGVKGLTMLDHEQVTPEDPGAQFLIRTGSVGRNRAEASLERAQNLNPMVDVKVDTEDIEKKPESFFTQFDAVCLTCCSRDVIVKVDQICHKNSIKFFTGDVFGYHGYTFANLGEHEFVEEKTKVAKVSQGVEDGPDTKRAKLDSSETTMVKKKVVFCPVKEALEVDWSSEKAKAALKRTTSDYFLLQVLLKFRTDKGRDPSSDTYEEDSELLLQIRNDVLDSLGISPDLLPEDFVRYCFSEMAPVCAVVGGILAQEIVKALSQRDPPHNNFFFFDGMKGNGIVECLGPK
T5 sequence (Q9UBT2 whole entry): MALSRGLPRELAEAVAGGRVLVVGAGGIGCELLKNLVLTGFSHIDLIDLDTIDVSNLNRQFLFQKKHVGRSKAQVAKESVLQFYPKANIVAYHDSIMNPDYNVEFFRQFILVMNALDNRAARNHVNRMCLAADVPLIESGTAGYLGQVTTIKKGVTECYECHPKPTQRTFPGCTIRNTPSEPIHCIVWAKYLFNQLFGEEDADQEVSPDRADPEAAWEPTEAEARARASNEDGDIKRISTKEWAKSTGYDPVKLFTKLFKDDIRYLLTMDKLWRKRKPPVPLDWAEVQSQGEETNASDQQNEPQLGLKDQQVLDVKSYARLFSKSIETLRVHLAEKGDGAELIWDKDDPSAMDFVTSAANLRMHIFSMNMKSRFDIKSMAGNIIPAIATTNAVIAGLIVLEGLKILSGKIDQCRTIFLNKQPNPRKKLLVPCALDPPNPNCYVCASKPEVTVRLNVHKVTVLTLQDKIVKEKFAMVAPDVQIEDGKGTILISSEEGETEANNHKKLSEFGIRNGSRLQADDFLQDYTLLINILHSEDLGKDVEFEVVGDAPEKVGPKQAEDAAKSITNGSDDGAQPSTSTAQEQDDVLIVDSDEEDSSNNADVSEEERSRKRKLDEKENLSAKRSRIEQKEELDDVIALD
Sequence of Cytochrome P450 2C19 (P33261 whole entry): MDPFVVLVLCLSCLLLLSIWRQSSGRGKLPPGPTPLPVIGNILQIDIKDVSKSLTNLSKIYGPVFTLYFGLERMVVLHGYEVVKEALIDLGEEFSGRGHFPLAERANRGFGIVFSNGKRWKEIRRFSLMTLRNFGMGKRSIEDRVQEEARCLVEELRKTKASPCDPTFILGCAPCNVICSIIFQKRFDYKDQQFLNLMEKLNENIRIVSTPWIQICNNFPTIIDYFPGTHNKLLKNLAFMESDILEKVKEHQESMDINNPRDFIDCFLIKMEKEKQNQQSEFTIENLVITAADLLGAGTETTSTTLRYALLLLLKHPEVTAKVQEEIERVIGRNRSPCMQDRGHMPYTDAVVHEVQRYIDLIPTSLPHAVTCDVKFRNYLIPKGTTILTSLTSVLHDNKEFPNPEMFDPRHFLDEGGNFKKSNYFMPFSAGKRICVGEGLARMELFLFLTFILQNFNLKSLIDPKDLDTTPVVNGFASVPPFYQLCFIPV
Sequence of Voltage-gated inwardly rectifying potassium channel KCNH2 (Q12809 whole entry): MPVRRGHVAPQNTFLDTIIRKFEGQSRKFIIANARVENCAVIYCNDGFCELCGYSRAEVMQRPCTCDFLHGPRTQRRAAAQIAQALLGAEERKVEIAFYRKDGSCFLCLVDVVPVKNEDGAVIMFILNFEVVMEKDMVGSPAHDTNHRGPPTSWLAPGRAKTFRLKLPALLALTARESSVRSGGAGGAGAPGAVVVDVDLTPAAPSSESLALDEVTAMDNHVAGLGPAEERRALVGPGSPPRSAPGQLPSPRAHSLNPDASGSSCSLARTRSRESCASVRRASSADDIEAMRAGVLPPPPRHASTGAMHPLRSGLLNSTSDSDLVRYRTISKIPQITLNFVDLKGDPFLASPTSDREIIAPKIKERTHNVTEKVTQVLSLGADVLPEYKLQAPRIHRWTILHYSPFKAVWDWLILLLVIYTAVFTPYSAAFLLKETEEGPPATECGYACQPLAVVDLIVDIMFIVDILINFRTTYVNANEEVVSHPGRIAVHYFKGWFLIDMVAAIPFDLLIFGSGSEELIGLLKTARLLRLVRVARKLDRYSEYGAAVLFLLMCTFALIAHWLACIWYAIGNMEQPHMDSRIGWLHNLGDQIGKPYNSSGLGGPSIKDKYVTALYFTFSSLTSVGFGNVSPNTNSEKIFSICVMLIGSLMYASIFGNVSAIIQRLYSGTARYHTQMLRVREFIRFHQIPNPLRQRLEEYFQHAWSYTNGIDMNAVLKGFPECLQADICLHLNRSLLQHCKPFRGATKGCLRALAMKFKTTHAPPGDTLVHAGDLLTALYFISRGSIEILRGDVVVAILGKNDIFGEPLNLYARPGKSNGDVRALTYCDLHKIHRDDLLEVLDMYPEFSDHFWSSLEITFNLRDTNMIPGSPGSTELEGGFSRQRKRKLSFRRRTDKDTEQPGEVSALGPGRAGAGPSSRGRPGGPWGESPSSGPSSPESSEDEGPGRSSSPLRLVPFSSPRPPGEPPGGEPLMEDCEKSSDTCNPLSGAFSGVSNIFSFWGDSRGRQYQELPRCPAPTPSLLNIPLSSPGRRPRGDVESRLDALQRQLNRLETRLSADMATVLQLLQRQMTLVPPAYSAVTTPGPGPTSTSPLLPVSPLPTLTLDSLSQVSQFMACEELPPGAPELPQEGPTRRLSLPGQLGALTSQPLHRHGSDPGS
Sequence of Beta-2 adrenergic receptor (P07550 whole entry): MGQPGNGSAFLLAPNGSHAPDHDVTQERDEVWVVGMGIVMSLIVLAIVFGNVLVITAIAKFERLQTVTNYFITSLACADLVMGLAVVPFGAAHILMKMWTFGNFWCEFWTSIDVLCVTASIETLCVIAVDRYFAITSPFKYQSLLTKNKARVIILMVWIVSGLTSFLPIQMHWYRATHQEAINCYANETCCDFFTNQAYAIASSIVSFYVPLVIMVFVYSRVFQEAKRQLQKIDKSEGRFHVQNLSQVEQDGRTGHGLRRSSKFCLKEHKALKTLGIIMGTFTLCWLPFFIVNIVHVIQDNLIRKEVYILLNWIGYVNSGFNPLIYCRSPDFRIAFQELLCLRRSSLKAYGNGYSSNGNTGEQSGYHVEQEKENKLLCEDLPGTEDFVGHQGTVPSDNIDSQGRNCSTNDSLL
Sequence of Glucose-6-phosphate 1-dehydrogenase (P11413 whole entry): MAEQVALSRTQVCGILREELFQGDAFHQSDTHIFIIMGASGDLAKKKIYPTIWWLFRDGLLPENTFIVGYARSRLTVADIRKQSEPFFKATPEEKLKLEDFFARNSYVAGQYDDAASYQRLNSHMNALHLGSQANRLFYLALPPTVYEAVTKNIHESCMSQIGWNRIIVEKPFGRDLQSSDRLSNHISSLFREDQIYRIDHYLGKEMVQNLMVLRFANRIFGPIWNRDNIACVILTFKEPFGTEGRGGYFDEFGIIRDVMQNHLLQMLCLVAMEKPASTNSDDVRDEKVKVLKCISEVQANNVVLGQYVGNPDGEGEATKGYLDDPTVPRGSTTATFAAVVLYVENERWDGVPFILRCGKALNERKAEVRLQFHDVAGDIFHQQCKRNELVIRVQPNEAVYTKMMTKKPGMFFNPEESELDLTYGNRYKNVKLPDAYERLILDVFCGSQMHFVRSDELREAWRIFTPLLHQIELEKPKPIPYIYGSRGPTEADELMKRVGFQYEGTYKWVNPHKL

As for `CSc1ccc(C(=O)C2CCCN(Cc3cccn3-c3cccnc3)C2)cc1` (stereo unspecified), the EC50 (commonly the concentration at which the effect is half-maximal) in data set [1] is 0.566 µM (active).
As for `Cc1ccc(C(=O)N/N=C/c2ccc(S(=O)(=O)[O-])o2)c(Cl)c1.[Na+]`, the AC50 result at Cytochrome P450 2C19 and on Cytochrome P450 2D6 was “inconclusive” in each case.
In the case of `c1nc(NCC2CCCC2)c2cc(-c3ccc4c(c3)OCO4)ccc2n1`, the AC50 (commonly the concentration at which the activity in the assay is half-maximal) in data set [2] is 0.00361 µM (active).
Take `CC(=O)Nc1ccc(S(=O)(=O)NNc2cccc(C)c2)cc1`: the EC50 in data set [3] is > 50 µM (active). Moreover, the IC50 (commonly the point on the concentration scale where inhibition reaches its midpoint) in [4] was > 80 µM (inactive); in data set [5], 35.9 µM (active).
Consider `COc1cc(-c2nnc(SC/C=C/c3ccccc3)n2N)cc(OC)c1OC`, for which the concentration at half-maximal activity (AC50) was 14.1 µM (inconclusive) on Cytochrome P450 1A2, 31.6 µM (inconclusive) on Cytochrome P450 3A4 and “inconclusive” on Cytochrome P450 2D6. Also, the EC50 in data set [6] was > 260 µM (inconclusive).
In the case of `Clc1ccc(CNc2nccc(-c3ccc4c(c3)OCO4)n2)cc1Cl`, the AC50 in data set [2] is < 0.00195 µM (active).
For `CCc1ccc(S(=O)(=O)/N=C2\C=CC(=O)c3ccccc32)cc1`, on Protein RecA, the EC50 was 0.643 µM (active). Also, the IC50 in [7] was 3.11 µM (active); on SUMO-activating enzyme [9], 4.93 µM (active); on SUMO-activating enzyme [10] it was 35.4 µM (active). Further, in [8], the AC50 was 1.15 µM (active). In [11], the 50% cytotoxic concentration (CC50) – broadly, the concentration giving 50% cytotoxicity – was 23.7 µM (active).
Consider `NC(=O)CC(NC(=O)Cc1ccc(Br)cc1)c1ccc(N2CCN(c3ccccn3)CC2)c([N+](=O)[O-])c1` (stereo unspecified), for which, in data set [1], the EC50 is 12.2 µM (inactive).
In the case of `CC(C)(C)c1cc(C=C(C#N)C#N)cc(C(C)(C)C)c1O` [TYRPHOSTIN A9], the AC50 was 15.8 µM (inconclusive) in data set [12], 7.94 µM (inconclusive) on Cytochrome P450 2C19 (read-out: AC50), 0.928 µM (active) in the data set on INS1 and 1.3 µM (active) in data set [13]. Further, the 50% cytotoxic concentration (CC50) with Vero was 1.37 µM (active). Besides, in [14], the IC50 was > 80 µM (inactive).
With `COc1ccc(C)c2sc(NC(=O)c3cccc(N4C(=O)CCC4=O)c3)nc12`, the IC50 on SUMO-activating enzyme [9] was 9.99 µM (active); on SUMO-activating enzyme [10], 6.1 µM (active).
In the case of `O=C(CSc1nnnn1-c1ccc(O)cc1)Nc1ccc(N2CCOCC2)c(Cl)c1`, the AC50 is 8.48 µM (active) in [2] and 8.12 µM (active) in data set [15]. Besides, the IC50 in data set [16] was 0.488 µM (active).
For the molecule `c1ccc(SCCSc2ccccc2)cc1`, in data set [12], the AC50 is 28.2 µM (inconclusive).
